The values that follow come from patent publication US11267825B2 (AICURIS GMBH & CO. KG, priority 2017, dated 2022).

One experiment has as its target HBV core protein (UniProt P03146). It is filed as biochemical. The note with it: read-out: Assembly Activity (IC50); BODIPY-FL labelled core protein, assembly started with NaCl, read after 6 min. In short, it runs like this: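 Fluorescence-quenching assembly assay using E. coli-expressed core protein 1–149 plus Cys150, labelled with BODIPY-FL maleimide, at 1.0–2.0 μM in 50 mM HEPES pH 7.5, 0.5% DMSO. Assembly started with NaCl to […]; fluorescence (ex 477/em 525 nm) read after 6 min. EC50 by non-linear regression, 8-point 0.5-log dilutions.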

The next experiment relates to HBV. The experiment can be described thus: Determination of HBV DNA from the supernatants of HepAD38 cells (anti-HBV activity). It counts as cell-based, hepatitis B virus. Conditions: Hepatitis B virus, 144 h; HBV DNA in HepAD38 supernatant at day 6; read-out: Cell Activity (EC50). In short, it runs like this:
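HepAD38 cells (60,000/well) were treated with half-log compound dilutions in tetracycline-free medium to induce HBV production. On day 6, HBV DNA was purified from filtered supernatant and quantified by real-time PCR against plasmid standards. EC50 values came from non-linear regression of relative copy numbers, typically from three experiments in triplicate.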

pEC50, pIC50: −log10 of the molar value. Bounds are passed on as bounds.

Sequence of HBV core protein (P03146 whole entry, looked up): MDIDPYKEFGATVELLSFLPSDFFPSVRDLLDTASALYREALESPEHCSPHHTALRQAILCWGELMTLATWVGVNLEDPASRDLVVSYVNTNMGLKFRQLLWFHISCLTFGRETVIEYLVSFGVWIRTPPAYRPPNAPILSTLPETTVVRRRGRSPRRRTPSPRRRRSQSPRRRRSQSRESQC

`CC(C)(CO)Nc1nc2c(s1)CN(C(=O)c1cc3ccccc3[nH]1)CC2` [Example 68, 2-{[5-(1H-indole-2-carbonyl)-4H,5H,6H,7H-[1,3]thiazolo[5,4-c]pyridin-2-yl]amino}-2-methylpropan-1-ol]: on HBV core protein, the pIC50 (usually the negative decadic logarithm of the IC50, by convention in mol/L) is above 5.30. Further, the pEC50 (in general, the EC50 on a negative log10 scale, so that one unit is a factor of ten) with HBV is above 6.00.

`O=C(Nc1nc2c(s1)CN(C(=O)c1cc3c(F)cc(F)cc3[nH]1)CC2)C1CCOCC1` [Example 319, N-[5-(4,6-difluoro-1H-indole-2-carbonyl)-4H,5H,6H,7H-[1,3]thiazolo[5,4-c]pyridin-2-yl]oxane-4-carboxamide]: the pIC50 on HBV core protein was above 5.30. Besides, the pEC50 in the experiment on HBV is above 6.00.

As for `O=C(c1cc2ccccc2[nH]1)N1CCc2nc(N[C@H]3CCCC[C@@H]3O)sc2C1` [Example 47, (1S,2S)-2-{[5-(1H-indole-2-carbonyl)-4H,5H,6H,7H-[1,3]thiazolo[5,4-c]pyridin-2-yl]amino}cyclohexan-1-ol], the pIC50 at HBV core protein is above 5.30. Besides, the pEC50 in the experiment with HBV was above 6.00.

As to `COC1CCC(Nc2nc3c(s2)CN(C(=O)c2cc4ccccc4[nH]2)CC3)CC1` (stereo not shown) [Example 310, 5-(1H-indole-2-carbonyl)-N-(4-methoxycyclohexyl)-4H,5H,6H,7H-[1,3]thiazolo[5,4-c]pyridin-2-amine], the pIC50 on HBV core protein was 5.00 to 5.30. In addition, the pEC50 with HBV was above 6.00.

Turning to `Cc1cc(F)cc2[nH]c(C(=O)N3CCc4nc(N)sc4C3)cc12` [Example 169, 5-(6-fluoro-4-methyl-1H-indole-2-carbonyl)-4H,5H,6H,7H-[1,3]thiazolo[5,4-c]pyridin-2-amine], the pIC50 on HBV core protein was above 5.30. The pEC50 in the experiment on HBV is above 6.00.

Turning to `CN1CCOCC1CNc1nc2c(s1)CN(C(=O)c1cc3ccccc3[nH]1)CC2` (stereo not shown) [Example 294, 5-(1H-indole-2-carbonyl)-N-[(4-methylmorpholin-3-yl)methyl]-4H,5H,6H,7H-[1,3]thiazolo[5,4-c]pyridin-2-amine], at HBV core protein, the pIC50 is above 5.30. Moreover, the pEC50 in the experiment on HBV was above 6.00.

Turning to `O=C(c1cc2ccccc2[nH]1)N1CCc2nc(NCC(CO)CC3CC3)sc2C1` (stereo not shown) [Example 282, 2-(cyclopropylmethyl)-3-{[5-(1H-indole-2-carbonyl)-4H,5H,6H,7H-[1,3]thiazolo[5,4-c]pyridin-2-yl]amino}propan-1-ol], the pIC50 on HBV core protein was 5.00 to 5.30. In the experiment with HBV, the pEC50 was above 6.00.

In the case of `Cc1ccc2cc(C(=O)N3CCc4nc(N)sc4C3)[nH]c2c1` [Example 150, 5-(6-methyl-1H-indole-2-carbonyl)-4H,5H,6H,7H-[1,3]thiazolo[5,4-c]pyridin-2-amine], the pIC50 at HBV core protein was above 5.30. Moreover, the pEC50 in the experiment with HBV was above 6.00.

As for `O=C(c1cc2ccccc2[nH]1)N1CCc2nc(N3CC4COCCN4C3)sc2C1` (stereo not shown) [Example 295, 2-(2-{hexahydro-1H-imidazo[4,3-c][1,4]oxazin-2-yl}-4H,5H,6H,7H-[1,3]thiazolo[5,4-c]pyridine-5-carbonyl)-1H-indole], the pIC50 at HBV core protein is above 4.00. In the experiment on HBV, the pEC50 was 5.00 to 6.00.

Consider `Cc1cc(F)cc2[nH]c(C(=O)N3CCc4nc(NCC5(CO)CC5)sc4C3)cc12` [Example 271, [1-({[5-(6-fluoro-4-methyl-1H-indole-2-carbonyl)-4H,5H,6H,7H-[1,3]thiazolo[5,4-c]pyridin-2-yl]amino}methyl)cyclopropyl]methanol], for which the pIC50 on HBV core protein was above 5.30. Also, the negative logarithm of the EC50 (pEC50) with HBV was above 6.00.

For the compound `CC(O)c1cccc2[nH]c(C(=O)N3CCc4nc(NCC5CCOC5)sc4C3)cc12` (stereo not shown) [Example 244, 1-[2-(2-{[(oxolan-3-yl)methyl]amino}-4H,5H,6H,7H-[1,3]thiazolo[5,4-c]pyridine-5-carbonyl)-1H-indol-4-yl]ethan-1-ol], the pIC50 on HBV core protein was above 4.00. Moreover, the pEC50 in the experiment on HBV is above 6.00.

`O=C(c1cc2ccccc2[nH]1)N1CCc2nc(CNCC3(CO)CC3)sc2C1` [Example 41, {1-[({[5-(1H-indole-2-carbonyl)-4H,5H,6H,7H-[1,3]thiazolo[5,4-c]pyridin-2-yl]methyl}amino)methyl]cyclopropyl}methanol]: the pIC50 on HBV core protein was above 4.00. In addition, the pEC50 in the experiment on HBV was 5.00 to 6.00.

In the case of `COc1cccc2cc(C(=O)N3CCc4nc(N)sc4C3)[nH]c12` [Example 153, 5-(7-methoxy-1H-indole-2-carbonyl)-4H,5H,6H,7H-[1,3]thiazolo[5,4-c]pyridin-2-amine], the pIC50 at HBV core protein is above 4.00. For the same compound, the pEC50 in the experiment with HBV is above 4.00.

For the compound `NC(=O)c1nc2c(s1)CN(C(=O)c1cc3ccccc3[nH]1)CC2` [Example 201, 5-(1H-indole-2-carbonyl)-4H,5H,6H,7H-[1,3]thiazolo[5,4-c]pyridine-2-carboxamide], at HBV core protein, the pIC50 was above 4.00. The pEC50 with HBV was 5.00 to 6.00.

On to `O=C(c1cc2ccccc2[nH]1)N1CCc2nc(NCC3(O)CCC3)sc2C1` [Example 46, 1-({[5-(1H-indole-2-carbonyl)-4H,5H,6H,7H-[1,3]thiazolo[5,4-c]pyridin-2-yl]amino}methyl)cyclobutan-1-ol], for which the pIC50 at HBV core protein is above 5.30. In the experiment with HBV, the pEC50 is above 6.00.

Regarding `Nc1nc2c(s1)CN(C(=O)c1cc3c(F)cc(Br)cc3[nH]1)CC2` [Example 143, 5-(6-bromo-4-fluoro-1H-indole-2-carbonyl)-4H,5H,6H,7H-[1,3]thiazolo[5,4-c]pyridin-2-amine], the pIC50 on HBV core protein is above 5.30. Moreover, the pEC50 in the experiment on HBV was above 6.00.

In the case of `O=C(c1cc2c(Cl)ccc(F)c2[nH]1)N1CCc2nc(NCC3CCOC3)sc2C1` (stereo not shown) [Example 116, 5-(4-chloro-7-fluoro-1H-indole-2-carbonyl)-N-[(oxolan-3-yl)methyl]-4H,5H,6H,7H-[1,3]thiazolo[5,4-c]pyridin-2-amine], on HBV core protein, the pIC50 was 5.00 to 5.30. In the experiment with HBV, the pEC50 was above 6.00.

For `O=C(c1cc2c(Cl)cc(F)cc2[nH]1)N1CCc2nc(NC3(CO)CCC3)sc2C1` [Example 223, (1-{[5-(4-chloro-6-fluoro-1H-indole-2-carbonyl)-4H,5H,6H,7H-[1,3]thiazolo[5,4-c]pyridin-2-yl]amino}cyclobutyl)methanol], the pIC50 on HBV core protein was above 5.30. Moreover, the pEC50 in the experiment with HBV was above 6.00.

Regarding `O=C(c1cc2c(F)c(F)ccc2[nH]1)N1CCc2nc(NCC3(CO)CC3)sc2C1` [Example 252, [1-({[5-(4,5-difluoro-1H-indole-2-carbonyl)-4H,5H,6H,7H-[1,3]thiazolo[5,4-c]pyridin-2-yl]amino}methyl)cyclopropyl]methanol], at HBV core protein, the pIC50 was above 5.30. Moreover, the pEC50 with HBV is above 6.00.

In the case of `O=C(c1cc2ccccc2[nH]1)N1CCc2nc(NC3CC(F)(F)C3)sc2C1` [Example 416, N-(3,3-difluorocyclobutyl)-5-(1H-indole-2-carbonyl)-4H,5H,6H,7H-[1,3]thiazolo[5,4-c]pyridin-2-amine], on HBV core protein, the pIC50 was 5.00 to 5.30. Besides, the pEC50 in the experiment on HBV is above 6.00.

On to `Nc1nc2c(s1)CN(C(=O)c1cc3ccc(Cl)c(Cl)c3[nH]1)CC2` [Example 148, 5-(6,7-dichloro-1H-indole-2-carbonyl)-4H,5H,6H,7H-[1,3]thiazolo[5,4-c]pyridin-2-amine], for which, at HBV core protein, the pIC50 was above 5.30. Also, in the experiment on HBV, the pEC50 is 5.00 to 6.00.

For the compound `Cc1nc2c(s1)CN(C(=O)c1cc3c(F)cc(Cl)cc3[nH]1)CC2` [Example 165], the pIC50 at HBV core protein is above 5.30. The pEC50 in the experiment on HBV is 5.00 to 6.00.

On to `CCNCc1nc2c(s1)CN(C(=O)c1cc3ccccc3[nH]1)CC2` [Example 32, Ethyl({[5-(1H-indole-2-carbonyl)-4H,5H,6H,7H-[1,3]thiazolo[5,4-c]pyridin-2-yl]methyl})amine], for which, on HBV core protein, the pIC50 is above 4.00. The pEC50 with HBV was above 4.00.

Consider `CC(O)c1cc(F)cc2[nH]c(C(=O)N3CCc4nc(N)sc4C3)cc12` (stereo not shown) [Example 15, 1-(2-{2-amino-4H,5H,6H,7H-[1,3]thiazolo[5,4-c]pyridine-5-carbonyl}-6-fluoro-1H-indol-4-yl)ethan-1-ol], for which the pIC50 at HBV core protein is 5.00 to 5.30. For the same compound, in the experiment with HBV, the pEC50 was 5.00 to 6.00.

For the compound `O=C(c1cc2ccccc2[nH]1)N1CCc2nc(NCC(CO)CC3CCC3)sc2C1` (stereo not shown) [Example 227, 2-(cyclobutylmethyl)-3-{[5-(1H-indole-2-carbonyl)-4H,5H,6H,7H-[1,3]thiazolo[5,4-c]pyridin-2-yl]amino}propan-1-ol], the pIC50 on HBV core protein was above 4.00. Further, in the experiment with HBV, the pEC50 was above 6.00.

For the compound `CC(=O)N1CCC(CNc2nc3c(s2)CN(C(=O)c2cc4ccccc4[nH]2)CC3)C1` (stereo not shown) [Example 391, 1-[3-({[5-(1H-indole-2-carbonyl)-4H,5H,6H,7H-[1,3]thiazolo[5,4-c]pyridin-2-yl]amino}methyl)pyrrolidin-1-yl]ethan-1-one], at HBV core protein, the pIC50 is above 5.30. The pEC50 in the experiment with HBV was above 6.00.

Regarding `O=C(c1cc2ccccc2[nH]1)N1CCc2nc(NCC3CCCO3)sc2C1` (stereo not shown) [Example 72, 5-(1H-indole-2-carbonyl)-N-[(oxolan-2-yl)methyl]-4H,5H,6H,7H-[1,3]thiazolo[5,4-c]pyridin-2-amine], at HBV core protein, the pIC50 was above 5.30. Moreover, the pEC50 with HBV was above 6.00.

Regarding `CC(C)(C)CC(=O)Nc1nc2c(s1)CN(C(=O)c1cc3c(Cl)cccc3[nH]1)CC2` [Example 263, N-[5-(4-chloro-1H-indole-2-carbonyl)-4H,5H,6H,7H-[1,3]thiazolo[5,4-c]pyridin-2-yl]-3,3-dimethylbutanamide], the pIC50 at HBV core protein was 5.00 to 5.30. Moreover, the pEC50 in the experiment with HBV is above 6.00.

For the compound `N#CC1(C(=O)Nc2nc3c(s2)CN(C(=O)c2cc4ccccc4[nH]2)CC3)CC1` [Example 336, 1-cyano-N-[5-(1H-indole-2-carbonyl)-4H,5H,6H,7H-[1,3]thiazolo[5,4-c]pyridin-2-yl]cyclopropane-1-carboxamide], the pIC50 at HBV core protein was 5.00 to 5.30. Further, the pEC50 with HBV is above 6.00.
